According to paper PMC7180572, “5-Alkylamino-N-phenylpyrazine-2-carboxamides: Design, Preparation, and Antimycobacterial Evaluation” (Molecules, 2020):
≈ marks a conversion by molar mass, not a printed value. Read-outs that look alike come from different tables or passages of the source.

What was measured:
[1] = test system: Staphylococcus epidermidis ATCC 12228, CCM 4418; assay: Antibacterial microdilution broth method (EUCAST); type: cell-based; details: read-out: MIC SE
[2] = test system: Klebsiella pneumoniae ATCC 10031, CCM 4415; assay: Antibacterial microdilution broth method (EUCAST)
[3] = test system: HepG2 cells; assay: HepG2 cytotoxicity, CellTiter 96 (MTS) assay; type: cell-based, human; details: for IC50: Homo sapiens, HepG2, 24 h, read-out: HepG2 IC50; for SI, selectivity index: IC50 (HepG2)/MIC against Mtb H37Ra (in µM)
[4] = test system: Absidia corymbifera CCM 8077 (Lichtheimia corymbifera); assay: Antifungal microdilution broth method (EUCAST); type: cell-based; details: read-out: MIC AC
[5] = test system: Acinetobacter baumanii ATCC 19606, DSM 30007; assay: Antibacterial microdilution broth method (EUCAST); type: cell-based; details: Acinetobacter baumannii
[6] = test system: Pseudomonas aeruginosa ATCC 27853, CCM 3955; assay: Antibacterial microdilution broth method (EUCAST); type: cell-based; details: read-out: MIC PA
[7] = test system: Staphylococcus aureus spp.aureus ATCC 29213, CCM 4223; assay: Antibacterial microdilution broth method (EUCAST); type: cell-based; details: read-out: MIC SA
[8] = test system: Enterococcus faecalis ATCC 29212, CCM 4224; assay: Antibacterial microdilution broth method (EUCAST); type: cell-based; details: read-out: MIC EF
[9] = test system: Candida tropicalis ATCC 750, CCM 8264; assay: Antifungal microdilution broth method (EUCAST); type: cell-based; details: read-out: MIC CT
[10] = test system: Escherichia coli ATCC 25922, CCM 3954; assay: Antibacterial microdilution broth method (EUCAST); type: cell-based; details: read-out: MIC EC
[11] = test system: M. kansasii CNCTC My 235/80 (ATCC 12478); assay: 96 well plate microdilution broth method with Alamar Blue; type: cell-based; details: Mycobacterium kansasii, ATCC12478, pH 6.6, read-out: MIC Mycobacterium kansasii
[12] = test system: Aspergillus fumigatus ATCC 204305; assay: Antifungal microdilution broth method (EUCAST); type: cell-based; details: read-out: MIC AF
[13] = test system: Candida parapsilosis ATCC 22019, CCM 8260; assay: Antifungal microdilution broth method (EUCAST); type: cell-based; details: Lodderomyces parapsilosis
[14] = test system: Staphylococcus aureus methicillin resistant ATCC 43300, CCM 4750; assay: microbe, parasite or virus in culture; type: cell-based; details: ATCC 43300 / CCM 4750 / MRSA, read-out: MIC MRSA
[15] = test system: Mycobacterium smegmatis DSM 43465 (ATCC 607); assay: Microdilution broth, modified Microplate Alamar Blue Assay, whole cell growth inhibition; type: cell-based; details: Mycolicibacterium smegmatis, read-out: MIC Mycobacterium smegmatis
[16] = test system: Candida krusei ATCC 6258, CCM 8271; assay: Antifungal microdilution broth method (EUCAST); type: cell-based; details: Pichia kudriavzevii
[17] = test system: Candida albicans ATCC 24433, CCM 8320; assay: Antifungal microdilution broth method (EUCAST); type: cell-based
[18] = test system: Trichophyton interdigitale ATCC 9533, CCM 8377; assay: Antifungal microdilution broth method (EUCAST); type: cell-based; details: read-out: MIC TI
[19] = test system: M. avium ssp. avium CNCTC My 80/72 (ATCC 15769); assay: 96 well plate microdilution broth method with Alamar Blue; type: cell-based; details: Mycobacterium avium, ATCC15769, pH 6.6, read-out: MIC Mycobacterium avium
[20] = test system: Mycobacterium aurum DSM 43999 (ATCC 23366); assay: Microdilution broth, modified Microplate Alamar Blue Assay, whole cell growth inhibition; type: cell-based; details: Mycolicibacterium aurum, read-out: MIC Mycobacterium aurum
[21] = test system: Aspergillus flavus CCM 8363; assay: Antifungal microdilution broth method (EUCAST); type: cell-based; details: read-out: MIC AFla
[22] = test system: Mycobacterium tuberculosis H37Ra ITM-M006710 (ATCC 9431); assay: Microdilution broth, modified Microplate Alamar Blue Assay, whole cell growth inhibition; type: cell-based; details: Mycobacterium tuberculosis, read-out: MIC Mtb H37Ra
[23] = in vitro, Middlebrook 7H9 broth, resazurin

In the case of `CCCCCCNc1cnc(C(=O)Nc2ccc(C)cc2)cn1` [Compound 4d, 5-(Hexylamino)-N-(p-tolyl)pyrazine-2-carboxamide], the MIC ([1]; 24 h) is reported as > 500 µM, the MIC ([1]; 48 h) is reported as > 500 µM and the “MIC KP” value ([2]; 24h) is reported as > 500 µM. For the same molecule, the “MIC KP” value ([2]; 48h) was > 500 µM, the IC50 [3] was > 50 µM and the “SI, selectivity index” value [3] was >10.01. The MIC ([4]; CCM8077, 24 h) was > 125 µM, the MIC ([4]; CCM8077, 48 h) was > 125 µM and the MIC ([5]; 24h) was > 500 µM. For the same molecule, the MIC ([5]; 48h) was > 500 µM, the MIC ([6]; 72 h) was > 500 µM and the MIC ([6]; 120 h) was > 500 µM. The MIC ([7]; 24 h) was > 500 µM, the MIC ([7]; 48 h) was > 500 µM and the MIC ([8]; 24 h) was > 500 µM. For the same molecule, the MIC ([8]; 48 h) was > 500 µM, the MIC ([9]; 24 h) was > 125 µM and the MIC ([9]; 48 h) was > 125 µM. The MIC ([10]; 24 h) was > 500 µM, the MIC ([10]; 48 h) was > 500 µM and the MIC [11] was 12.5 µg/mL (≈ 40 µM). The MIC ([12]; ATCC204305, 24 h) was > 125 µM, the MIC ([12]; ATCC204305, 48 h) was > 125 µM and the MIC ([13]; 24 h, read-out: MIC CP) was 125 µM (≈ 39.1 µg/mL). For the same molecule, the MIC ([13]; 48 h, read-out: MIC CP) was 125 µM (≈ 39.1 µg/mL), the MIC ([13]; read-out: MIC CP (Candida parapsilosis)) was 125 µM (≈ 39.1 µg/mL) and the MIC ([14]; 24 h) was > 500 µM. The MIC ([14]; 48 h) was > 500 µM, the MIC [15] was ≥ 500 µg/mL and the MIC ([16]; 24 h, read-out: MIC CK) was 125 µM (≈ 39.1 µg/mL). The MIC ([16]; 48 h, read-out: MIC CK) was 125 µM (≈ 39.1 µg/mL), the MIC ([16]; read-out: MIC CK (Candida krusei)) was 125 µM (≈ 39.1 µg/mL) and the MIC ([17]; 24 h, read-out: MIC CA) was > 125 µM. The MIC ([17]; 48 h, read-out: MIC CA) was > 125 µM, the MIC ([17]; read-out: MIC CA (Candida albicans)) was > 125 µM and the melting point was 163 to 164 °C. For the same molecule, the MIC ([18]; 72 h) was > 125 µM, the MIC ([18]; 120 h) was > 125 µM and the MIC [19] was > 100 µg/mL. For the same molecule, the MIC [20] was ≥ 500 µg/mL, the MIC ([21]; CCM8363, 24 h) was > 125 µM and the MIC ([21]; CCM8363, 48 h) was > 125 µM. The MIC ([22]; MIC converted to µM) was 4.99 µM and the MIC [22, 23] was 1.56 µg/mL.

For `CCCCCCCNc1cnc(C(=O)Nc2ccc(C)cc2)cn1` [Compound 4e, 5-(Heptylamino)-N-(p-tolyl)pyrazine-2-carboxamide], the MIC ([1]; 24 h) was > 500 µM, the MIC ([1]; 48 h) was > 500 µM and the “MIC KP” value ([2]; 24h) was > 500 µM. For the same molecule, the “MIC KP” value ([2]; 48h) was > 500 µM, the IC50 [3] was > 50 µM and the “SI, selectivity index” value [3] was >20.91. For the same molecule, the MIC ([4]; CCM8077, 24 h) was > 125 µM, the MIC ([4]; CCM8077, 48 h) was > 125 µM and the MIC ([5]; 24h) was > 500 µM. The MIC ([5]; 48h) was > 500 µM, the MIC ([6]; 72 h) was > 500 µM and the MIC ([6]; 120 h) was > 500 µM. The MIC ([7]; 24 h) was > 500 µM, the MIC ([7]; 48 h) was > 500 µM and the MIC ([8]; 24 h) was > 500 µM. The MIC ([8]; 48 h) was > 500 µM, the MIC ([9]; 24 h) was > 125 µM and the MIC ([9]; 48 h) was > 125 µM. For the same molecule, the MIC ([10]; 24 h) was > 500 µM, the MIC ([10]; 48 h) was > 500 µM and the MIC [11] was 12.5 µg/mL (≈ 38.3 µM). For the same molecule, the MIC ([12]; ATCC204305, 24 h) was > 125 µM, the MIC ([12]; ATCC204305, 48 h) was > 125 µM and the MIC ([13]; 24 h, read-out: MIC CP) was > 125 µM. The MIC ([13]; 48 h, read-out: MIC CP) was > 125 µM, the MIC ([14]; 24 h) was > 500 µM and the MIC ([14]; 48 h) was > 500 µM. The MIC [15] was ≥ 500 µg/mL, the MIC ([16]; 24 h, read-out: MIC CK) was > 125 µM and the MIC ([16]; 48 h, read-out: MIC CK) was > 125 µM. The MIC ([17]; 24 h, read-out: MIC CA) was > 125 µM, the MIC ([17]; 48 h, read-out: MIC CA) was > 125 µM and the melting point was 157.8 to 158.9 °C. The MIC ([18]; 72 h) was > 125 µM, the MIC ([18]; 120 h) was > 125 µM and the MIC [19] was > 100 µg/mL. The MIC [20] was ≥ 500 µg/mL, the MIC ([21]; CCM8363, 24 h) was > 125 µM and the MIC ([21]; CCM8363, 48 h) was > 125 µM. It also gave an MIC ([22]; MIC converted to µM) of 2.39 µM and an MIC [22, 23] of 0.78 µg/mL.
